Measurements taken from US12421225B2, “Heteroaromatic amide derivative and medicament containing the same” (KAKEN PHARMACEUTICAL CO., LTD., priority 2018, dated 2025).
Where a name gives a salt, the structure may show the parent alone.

What was measured:
[1] = target: human Nav1.7 (Homo sapiens (Human), UniProt Q15858); test: Human Nav1.7 inhibitory activity evaluation (automated patch clamp QPatch16X, HEK293A cells stably expressing human Nav1.7 and human Navβ1); format: cell-based
Method in brief: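 QPatch16X whole-cell recordings at room temperature from HEK293A cells stably expressing human Nav1.7 with Navβ1, CsF-based internal solution, pH 7.4 external, 0.1% DMSO. From −100 mV holding, protocol included a 15 s hold at a potential inactivating ~30-40% of channels; IC50 from inward current at the second −10 mV pulse.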

[2] = target: human Nav1.5 (Homo sapiens (Human), UniProt Q14524); test: Human Nav1.5 inhibitory activity evaluation (automated patch clamp QPatch16X, HEK293 cells stably expressing human Nav1.5); format: cell-based
Method in brief: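 Whole-cell automated patch clamp at room temperature on HEK293 stably expressing human Nav1.5; holding −80 mV, 20 consecutive cardiomyocyte action-potential-like test pulses before and after compound (0.1% DMSO). Inhibition measured on inward current at 20th pulse; IC50 from concentration-response curve.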

[3] = system: male ICR mice; test: Effect on acute pain (capsaicin-induced pain-related behavior, hind paw); format: in vivo
Experimental: Test Example 3: Effect on Acute Pain
Six-week old male ICR mice were used for the test. Test compounds were orally administered at 1-10 mg/kg and the mice were habituated to a clear observation cage for 60 minutes. The mice were lightly restrained under no anesthesia and 20 μL of 80 μg/mL (0.8% ethanol-saline) capsaicin solution was injected subcutaneously into the plantar surface of rihgt hind paw of mice. The mice were returned to the observation cage and, from just after that, the duration of pain-related behavior (licking, shaking) occurring in the right hind limb was measured as the reaction time for 5 minutes.
The inhibition rate of the test compound was determined by the following calculation formula. Test compound inhibition rate (%)=100×[1−(response time of test compound administered group/response time of vehicle control group)]

[4] = system: male ICR mice; test: Effect on a neuropathic pain (L5 spinal nerve cut, von Frey 50% pain threshold); format: in vivo; conditions: allodynia-developed mice, dose of 10 mg/kg or less, single oral administration
Experimental: Test Example 4: Effect on a Neuropathic Pain
Five-week old male ICR mice were used for the test. The skin and muscles were incised to expose the sixth lumbar vertebra under isoflurane anesthesia, and the right transverse process was removed. The L5 spinal nerve was isolated from the surrounding tissue to cut out, and then the incision site was sutured.
The 50% pain threshold of the plantar surface was determined by referring to the method of Chaplan S R et al. (J Neurosci Methods 1994, 53: 55-63) using von Frey filaments (0.008 g, 0.02 g, 0.04 g, 0.07 g, 0.16 g, 0.4 g and 0.6 g). First, the mice were placed in a measurement case with a lattice scaffold and habituatedd until the animal settled; 0.07 g of filament was pressed against the plantar surface for about 3 seconds. If withdrawal behavior was observed, the filament with the stimulation intensity one level lower was used to apply stimulation, and conversely, if the withdrawal behavior was not detected, the filament with the stimulation intensity one level higher was used to apply stimulation. By repeating this operation, starting from 2 times before and after the presence or absence of escape behavior changed, the results for a total of 6 times were recorded, to calculate a 50% pain threshold using the following calculation formula. 50% pain threshold (g)=(10^[Xf+κδ]/10000)
Xf is the value of the stimulus intensity of the filament used in the last stimulation (log value), κ is the value derived from the pattern of presence/absence of withdrawal behavior for 6 times, and δ is the difference in stimulus intensity (log value) between the filaments used (here 0.365).

[5] = HEK293A cells stably expressing human Nav1.7 and human Navβ1, automated patch clamp QPatch16X
[6] = HEK293 cells stably expressing human Nav1.5, automated patch clamp QPatch16X
[7] = human Nav1.7, automated patch clamp
[8] = human Nav1.5, automated patch clamp

Sequence of human Nav1.5 (Q14524 whole entry): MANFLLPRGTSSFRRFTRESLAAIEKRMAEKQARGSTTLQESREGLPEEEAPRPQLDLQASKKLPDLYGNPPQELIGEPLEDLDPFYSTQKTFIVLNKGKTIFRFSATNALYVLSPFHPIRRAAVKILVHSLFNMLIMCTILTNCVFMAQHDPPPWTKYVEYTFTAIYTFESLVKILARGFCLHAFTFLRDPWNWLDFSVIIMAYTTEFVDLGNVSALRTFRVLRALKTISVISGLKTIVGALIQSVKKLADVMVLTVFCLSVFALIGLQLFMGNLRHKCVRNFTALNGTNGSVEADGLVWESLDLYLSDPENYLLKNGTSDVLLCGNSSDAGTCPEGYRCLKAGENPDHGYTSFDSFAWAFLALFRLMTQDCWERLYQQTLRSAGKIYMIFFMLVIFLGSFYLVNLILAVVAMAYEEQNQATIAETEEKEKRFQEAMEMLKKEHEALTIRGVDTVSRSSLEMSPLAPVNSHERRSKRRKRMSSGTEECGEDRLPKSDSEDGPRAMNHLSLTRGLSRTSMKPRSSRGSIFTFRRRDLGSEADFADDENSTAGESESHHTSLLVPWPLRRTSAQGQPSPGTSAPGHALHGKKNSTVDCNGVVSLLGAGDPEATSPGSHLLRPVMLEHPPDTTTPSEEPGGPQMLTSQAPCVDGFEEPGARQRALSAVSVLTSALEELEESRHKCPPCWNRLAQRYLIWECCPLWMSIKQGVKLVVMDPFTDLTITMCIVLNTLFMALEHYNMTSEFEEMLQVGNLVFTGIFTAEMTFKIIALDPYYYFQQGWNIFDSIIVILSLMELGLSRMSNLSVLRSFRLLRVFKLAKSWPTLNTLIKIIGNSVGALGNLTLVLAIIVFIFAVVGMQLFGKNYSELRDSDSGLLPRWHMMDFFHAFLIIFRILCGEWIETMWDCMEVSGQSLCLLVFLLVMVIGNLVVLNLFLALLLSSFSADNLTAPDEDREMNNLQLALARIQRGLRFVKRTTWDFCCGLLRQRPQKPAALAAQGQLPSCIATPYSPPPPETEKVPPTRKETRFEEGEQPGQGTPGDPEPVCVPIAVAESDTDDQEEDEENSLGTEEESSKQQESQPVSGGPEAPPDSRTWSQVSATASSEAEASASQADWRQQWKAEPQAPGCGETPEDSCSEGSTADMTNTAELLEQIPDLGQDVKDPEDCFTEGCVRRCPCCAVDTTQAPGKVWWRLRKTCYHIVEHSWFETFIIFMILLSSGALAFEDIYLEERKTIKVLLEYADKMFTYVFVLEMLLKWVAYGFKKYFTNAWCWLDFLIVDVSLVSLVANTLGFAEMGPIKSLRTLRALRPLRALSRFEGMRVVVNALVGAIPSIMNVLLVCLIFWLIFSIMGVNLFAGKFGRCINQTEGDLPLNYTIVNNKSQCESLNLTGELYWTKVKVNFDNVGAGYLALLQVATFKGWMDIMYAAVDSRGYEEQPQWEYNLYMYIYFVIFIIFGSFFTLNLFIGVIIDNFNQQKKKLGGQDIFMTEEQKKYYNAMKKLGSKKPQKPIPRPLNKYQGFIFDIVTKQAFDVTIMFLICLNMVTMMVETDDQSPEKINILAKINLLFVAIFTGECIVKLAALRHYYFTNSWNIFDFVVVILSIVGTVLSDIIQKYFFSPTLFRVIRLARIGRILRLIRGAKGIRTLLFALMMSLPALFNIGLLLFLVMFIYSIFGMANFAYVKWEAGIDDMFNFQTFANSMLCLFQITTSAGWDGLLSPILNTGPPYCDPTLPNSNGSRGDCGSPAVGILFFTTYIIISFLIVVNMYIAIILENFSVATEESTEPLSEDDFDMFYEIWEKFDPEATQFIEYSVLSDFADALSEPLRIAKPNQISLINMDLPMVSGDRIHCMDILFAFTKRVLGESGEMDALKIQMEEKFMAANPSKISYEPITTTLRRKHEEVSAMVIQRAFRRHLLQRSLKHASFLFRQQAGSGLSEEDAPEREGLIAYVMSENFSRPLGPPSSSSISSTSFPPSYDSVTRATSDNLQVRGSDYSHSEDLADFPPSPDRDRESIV
Sequence of human Nav1.7 (Q15858 whole entry): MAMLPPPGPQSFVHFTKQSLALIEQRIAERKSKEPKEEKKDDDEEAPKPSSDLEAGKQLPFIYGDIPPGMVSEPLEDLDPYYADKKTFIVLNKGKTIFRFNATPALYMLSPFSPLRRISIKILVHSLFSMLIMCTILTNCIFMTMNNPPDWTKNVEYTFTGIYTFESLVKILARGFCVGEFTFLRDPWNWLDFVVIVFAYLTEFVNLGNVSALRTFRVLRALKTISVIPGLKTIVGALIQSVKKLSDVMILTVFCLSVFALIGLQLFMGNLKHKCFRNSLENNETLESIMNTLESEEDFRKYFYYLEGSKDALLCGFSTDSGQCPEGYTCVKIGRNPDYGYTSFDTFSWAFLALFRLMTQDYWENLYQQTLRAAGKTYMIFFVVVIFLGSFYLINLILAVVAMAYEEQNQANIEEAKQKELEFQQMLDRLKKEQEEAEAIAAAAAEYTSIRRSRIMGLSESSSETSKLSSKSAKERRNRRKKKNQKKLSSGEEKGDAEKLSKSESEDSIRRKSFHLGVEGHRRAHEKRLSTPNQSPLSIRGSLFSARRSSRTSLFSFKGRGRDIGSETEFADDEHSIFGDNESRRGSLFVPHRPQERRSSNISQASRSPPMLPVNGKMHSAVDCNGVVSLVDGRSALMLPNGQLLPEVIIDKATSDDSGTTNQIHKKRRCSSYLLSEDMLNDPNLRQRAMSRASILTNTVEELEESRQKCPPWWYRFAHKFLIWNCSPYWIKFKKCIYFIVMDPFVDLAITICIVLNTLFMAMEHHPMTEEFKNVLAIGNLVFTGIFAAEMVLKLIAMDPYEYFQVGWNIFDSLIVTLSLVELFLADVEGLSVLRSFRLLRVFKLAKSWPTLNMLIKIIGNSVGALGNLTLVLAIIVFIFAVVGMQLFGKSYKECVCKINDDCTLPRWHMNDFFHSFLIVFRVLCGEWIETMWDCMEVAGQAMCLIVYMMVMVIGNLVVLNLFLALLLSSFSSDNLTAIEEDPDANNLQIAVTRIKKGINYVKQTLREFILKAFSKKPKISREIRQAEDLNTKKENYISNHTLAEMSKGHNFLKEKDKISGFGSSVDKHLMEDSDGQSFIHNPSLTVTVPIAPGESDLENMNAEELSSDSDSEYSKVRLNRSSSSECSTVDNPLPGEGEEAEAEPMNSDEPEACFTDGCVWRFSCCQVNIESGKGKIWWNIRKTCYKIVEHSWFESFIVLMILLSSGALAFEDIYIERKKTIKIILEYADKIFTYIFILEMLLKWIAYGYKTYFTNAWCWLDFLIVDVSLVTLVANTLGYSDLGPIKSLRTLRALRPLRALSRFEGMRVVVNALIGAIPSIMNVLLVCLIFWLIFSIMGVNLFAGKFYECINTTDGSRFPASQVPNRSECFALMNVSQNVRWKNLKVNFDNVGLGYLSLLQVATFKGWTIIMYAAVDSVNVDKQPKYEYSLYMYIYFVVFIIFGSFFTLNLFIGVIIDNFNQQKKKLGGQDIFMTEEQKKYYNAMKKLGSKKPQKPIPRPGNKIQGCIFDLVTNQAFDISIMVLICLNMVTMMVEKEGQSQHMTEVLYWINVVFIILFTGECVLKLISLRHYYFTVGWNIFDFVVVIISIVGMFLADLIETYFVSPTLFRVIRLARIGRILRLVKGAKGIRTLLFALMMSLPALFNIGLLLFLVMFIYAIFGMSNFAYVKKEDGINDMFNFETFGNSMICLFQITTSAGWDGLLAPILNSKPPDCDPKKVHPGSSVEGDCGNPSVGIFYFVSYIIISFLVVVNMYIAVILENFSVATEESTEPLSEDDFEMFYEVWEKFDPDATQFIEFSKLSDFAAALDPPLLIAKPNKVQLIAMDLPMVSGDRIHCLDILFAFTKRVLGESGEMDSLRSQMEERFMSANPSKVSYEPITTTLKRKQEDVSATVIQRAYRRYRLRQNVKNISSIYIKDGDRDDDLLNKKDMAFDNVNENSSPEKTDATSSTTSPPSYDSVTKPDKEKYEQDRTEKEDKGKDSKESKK
Sequence of human Nav1.7 (Q07699 19-218 partner): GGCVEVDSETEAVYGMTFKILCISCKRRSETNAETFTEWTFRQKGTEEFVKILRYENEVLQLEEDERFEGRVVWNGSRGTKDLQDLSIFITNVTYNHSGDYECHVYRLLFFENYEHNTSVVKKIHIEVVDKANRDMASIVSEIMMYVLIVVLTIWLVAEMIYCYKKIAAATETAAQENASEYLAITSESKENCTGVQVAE

Compound: N#Cc1ccc2c(c1)C[C@@H](NC(=O)c1cc3n(n1)CCC(COCC1CC1)O3)CO2 (single isomer, unassigned) [103 (isomer A)]
- IC50 [1, 5]: < 1000 nM
- IC50 [2, 6]: ≥ 3000 nM
- Inhibition rate (%) [3]: A (Compounds with an inhibition rate of 30% or more are indicated by the letter “A”)
- 50% pain threshold (antiallodynic effect) [4]: increased the 50% pain threshold

Compound: O=C(NCCc1cccc(C(F)(F)F)c1)c1cn2c(n1)CNC(c1ccccc1)C2 (stereo not drawn) [Example 48]
- IC50 [1, 5]: < 10000 nM
- IC50 [2, 6]: ≥ 3000 nM
- Inhibition rate (%) [3]: A (Compounds with an inhibition rate of 30% or more are indicated by the letter “A”)

Compound: O=C(N[C@H]1COc2ccccc2C1)c1cn2c(n1)CNC(c1ccc(F)c(F)c1)C2 (stereo partly drawn) [Example 44]
- IC50 [1, 5]: < 10000 nM
- IC50 [2, 6]: ≥ 3000 nM
- Inhibition rate (%) [3]: A (Compounds with an inhibition rate of 30% or more are indicated by the letter “A”)

Compound: O=C(N[C@H]1COc2ccc(C(F)(F)F)cc2C1)c1cc2n(n1)CCC(C(F)F)O2 (single isomer, unassigned) [161 (isomer A)]
- IC50 [1, 7]: < 1000 nM
- IC50 [2, 8]: ≥ 3000 nM
- Inhibition rate (%) [3]: A (Compounds with an inhibition rate of 30% or more are indicated by the letter “A”)
- 50% pain threshold (antiallodynic effect) [4]: increased the 50% pain threshold

Compound: N#Cc1ccc2c(c1)C[C@@H](NC(=O)c1cc3n(n1)CCC(COC(F)(F)F)O3)CO2 (single isomer, unassigned) [134 (isomer A)]
- IC50 [1, 5]: < 1000 nM
- IC50 [2, 6]: 1000 to 3000 nM
- Inhibition rate (%) [3]: A (Compounds with an inhibition rate of 30% or more are indicated by the letter “A”)
- 50% pain threshold (antiallodynic effect) [4]: increased the 50% pain threshold

Compound: O=C(c1cn2c(n1)CNC(c1ccccc1)C2)N1CCOC(c2cccc(C(F)(F)F)c2)C1 (stereo not drawn) [Example 61]
- IC50 [1, 5]: < 10000 nM
- IC50 [2, 6]: ≥ 3000 nM
- Inhibition rate (%) [3]: B (compounds with an inhibition rate of 20% or more and less than 30% are indicated by the letter “B”)

Compound: CCC1CCn2nc(C(=O)N[C@H]3COc4ccc(C#N)cc4C3)cc2O1 (single isomer, unassigned) [Example 92 (isomer A)]
- IC50 [1, 5]: < 1000 nM
- IC50 [2, 6]: ≥ 3000 nM
- Inhibition rate (%) [3]: A (Compounds with an inhibition rate of 30% or more are indicated by the letter “A”)

Compound: O=C(N[C@H]1COc2ccc(COCC(F)(F)F)cc2C1)c1cc2n(n1)CCC(COCC(F)(F)F)O2 (single isomer, unassigned) [129 (isomer A)]
- IC50 [1, 5]: < 1000 nM
- IC50 [2, 6]: ≥ 3000 nM
- Inhibition rate (%) [3]: A (Compounds with an inhibition rate of 30% or more are indicated by the letter “A”)

Compound: N#Cc1ccc2c(c1)C[C@@H](NC(=O)c1cc3n(n1)CC(CCSCC(F)(F)F)O3)CO2 (single isomer, unassigned) [244 (isomer A)]
- IC50 [1, 7]: < 1000 nM
- IC50 [2, 8]: 1000 to 3000 nM
- Inhibition rate (%) [3]: B (compounds with an inhibition rate of 20% or more and less than 30% are indicated by the letter “B”)

Compound: N#Cc1ccc2c(c1)C[C@@H](NC(=O)c1cc3n(n1)CCC(c1ccccc1F)O3)CO2 (stereo partly drawn) [Example 70, N—((R)-6-cyanochroman-3-yl)-5-(2-fluorophenyl)-6,7-dihydro-5H-pyrazolo[5,1-b][1,3]oxazine-2-carboxamide]
- IC50 [1, 5]: < 1000 nM
- IC50 [2, 6]: 1000 to 3000 nM
- Inhibition rate (%) [3]: A (Compounds with an inhibition rate of 30% or more are indicated by the letter “A”)
- 50% pain threshold (antiallodynic effect) [4]: increased the 50% pain threshold

Compound: O=C(c1cn2c(n1)CNC(c1ccccc1)C2)N1CCC(c2cccc(C(F)(F)F)c2)C1 (stereo not drawn) [Example 60]
- IC50 [1, 5]: < 10000 nM
- IC50 [2, 6]: ≥ 3000 nM
- Inhibition rate (%) [3]: B (compounds with an inhibition rate of 20% or more and less than 30% are indicated by the letter “B”)

Compound: COc1cc(C2CCn3nc(C(=O)N[C@H]4COc5ccc(C#N)cc5C4)cc3O2)ccn1 (single isomer, unassigned) [74 (isomer A)]
- IC50 [1, 5]: < 1000 nM
- IC50 [2, 6]: ≥ 3000 nM
- Inhibition rate (%) [3]: A (Compounds with an inhibition rate of 30% or more are indicated by the letter “A”)

Compound: N#Cc1ccc2c(c1)C[C@@H](NC(=O)c1cc3n(n1)CCN(Cc1ccc(F)cc1)C3)CO2 [Example 290, (R)—N-(6-cyanochroman-3-yl)-5-(4-fluorobenzyl)-4,5,6,7-tetrahydropyrazolo[1,5-a]pyrazine-2-carboxamide hydrochloride]
- Inhibition rate (%) [3]: A (Compounds with an inhibition rate of 30% or more are indicated by the letter “A”)
- 50% pain threshold (antiallodynic effect) [4]: increased the 50% pain threshold

Compound: N#Cc1ccc2c(c1)C[C@@H](NC(=O)c1cc3n(n1)CCC(COCC(F)(F)F)O3)CO2 (single isomer, unassigned) [115 (isomer A)]
- IC50 [1, 5]: < 10000 nM
- IC50 [2, 6]: ≥ 3000 nM
- Inhibition rate (%) [3]: A (Compounds with an inhibition rate of 30% or more are indicated by the letter “A”)

Compound: O=C(N[C@H]1COc2ccc(C(F)(F)F)cc2C1)c1nn2c(c1-c1ccccn1)COCC2 [Example 260, (R)-3-(pyridin-2-yl)-N-(6-(trifluoromethyl)chroman-3-yl)-6,7-dihydro-4H-pyrazolo[5,1-c][1,4]oxazine-2-carboxamide]
- IC50 [1, 7]: < 1000 nM
- IC50 [2, 8]: ≥ 3000 nM
- Inhibition rate (%) [3]: A (Compounds with an inhibition rate of 30% or more are indicated by the letter “A”)

Compound: COc1ncc(-c2ccc3c(c2)C[C@@H](NC(=O)c2cc4n(n2)CC(CCOCC2CC2)O4)CO3)cn1 (single isomer, unassigned) [204 (isomer A)]
- IC50 [1, 7]: < 1000 nM
- IC50 [2, 8]: ≥ 3000 nM
- Inhibition rate (%) [3]: A (Compounds with an inhibition rate of 30% or more are indicated by the letter “A”)

Compound: O=C(N[C@H]1COc2ccc(C(F)F)cc2C1)c1cn2c(n1)CCC(OCC(F)(F)F)C2 (stereo partly drawn) [Example 40]
- IC50 [1, 5]: < 10000 nM
- IC50 [2, 6]: ≥ 3000 nM
- Inhibition rate (%) [3]: B (compounds with an inhibition rate of 20% or more and less than 30% are indicated by the letter “B”)

Compound: CCCOCC1CCn2nc(C(=O)N[C@H]3COc4ccc(C#N)cc4C3)cc2O1 (single isomer, unassigned) [101 (isomer A)]
- IC50 [1, 5]: < 1000 nM
- IC50 [2, 6]: ≥ 3000 nM
- Inhibition rate (%) [3]: C (compounds with an inhibition rate of 10% or more but less than 20% is indicated by the letter “C”)
